In assay [1] the target is human S1P1 (EDG-1) (Homo sapiens (Human), UniProt P21453). Kind of assay: Inhibition of binding of [33P]-S1P to S1P1 (EDG-1), CHO cell membrane fractions. The settings on record: [33P]-S1P displacement, CHO membranes overexpressing human S1P1. Here is the method: (§1) Biological Experimental Example 1: Measurement of the Inhibitory Action of the Compound of the Present Invention on Binding of [^33P]-S1P to S1P5 (EDG-8)
(§2) A reaction was carried out in a 96-well microplate by using membrane fractions of Chinese hamster ovary (CHO) cells each of which was made to overexpress human S1P1 (EDG-1) or human S1P5 gene respectively, in an amount of the membrane fraction of 1 mg protein/mL. To each of the wells, 100 μL of a vehicle (DMSO) solution or a two-fold concentration-ligand solution each of which was diluted with Binding Buffer (50 mmol/L, Tris pH 7.5, 5 mmol/L, MgCl2, 0.5% BSA and Complete EDTA free (1 tablet/50 mL)), and 50 μL of 0.16 nmol/L [^33P]-S1P (manufactured by American Radiolabeled Chemicals, Inc.) diluted with Binding Buffer were added. Thereafter, the membrane fraction solutions (50 μL) was added to the wells and the reaction was carried out at room temperature for 60 minutes. After the reaction, suction filtration was carried out by using a 96-well UNIFILTER, and the 96-well microplate was washed with Wash Buffer (50 mmol/L, Tris pH 7.5, 0.5% BSA) ([…]), and thereafter, was dried at 60° C. for 45 minutes. MicroScint (trade name) 20 (50 μL/well) was added and the plate was covered with TopSeal-A, and thereafter, the radioactivity was measured by using TopCount (manufactured by PerkinElmer Inc.).

In assay [2] the target is T1, human S1P5 (EDG-8) (Homo sapiens (Human), UniProt Q9H228). Kind of assay: Inhibition of binding of [33P]-S1P to S1P5 (EDG-8), CHO cell membrane fractions. The settings on record: [33P]-S1P displacement, CHO membranes overexpressing human S1P5. The protocol:
as §1, §2

Assay [3] deals with T1, human S1P5 (EDG-8). Kind of assay: S1P5 receptor agonist activity by monitoring intracellular cyclic AMP in CHO cells overexpressing human S1P5. To be noted: cAMP, forskolin-stimulated CHO cells overexpressing human S1P5. It counts as cell-based. The protocol: Biological Example 2: Evaluation of S1P5 Receptor Agonist Activities of the Compound of the Present Invention by Monitoring the Concentration of Produced Intracellular Cyclic AMP
CHO cells which were made to overexpress human S1P5 (EDG-8) gene were cultured in Ham's F12 Medium (manufactured by Gibco-BRL) containing 10% FBS (fetal bovine serum), penicillin/streptomycin and geneticin (0.25 mg/mL). The medium was removed from the cultured cells, the cultured cells were washed once with phosphate-buffered saline, and the cultured cells were treated with a vehicle (DMSO) solution or a compound solution each of which was diluted with Buffer (Hanks' balanced salt solution containing 20 mmol/L HEPES, 0.1 or 0.2% BSA, 1 mmol/L IBMX and 5 μmol/L forskolin) at 37° C. for 30 minutes. Thereafter, the cultured cells were washed once with phosphate-buffered saline, lysis of the cells, and the concentration of cyclic AMP in the cell lysate were measured by using cAMP Assay Kit (Cisbio Bioassays).

The structures appear in SMILES notation. Where a name gives a salt, the structure may show the parent alone.

One may read the IC50 as the concentration at which inhibition is half-maximal. Usually EC50 stands for the concentration that produces a half-maximal response. The low end stands for an effect from little substance, the high end for a need for much substance.

human S1P1 (EDG-1), sequence (P21453 whole entry): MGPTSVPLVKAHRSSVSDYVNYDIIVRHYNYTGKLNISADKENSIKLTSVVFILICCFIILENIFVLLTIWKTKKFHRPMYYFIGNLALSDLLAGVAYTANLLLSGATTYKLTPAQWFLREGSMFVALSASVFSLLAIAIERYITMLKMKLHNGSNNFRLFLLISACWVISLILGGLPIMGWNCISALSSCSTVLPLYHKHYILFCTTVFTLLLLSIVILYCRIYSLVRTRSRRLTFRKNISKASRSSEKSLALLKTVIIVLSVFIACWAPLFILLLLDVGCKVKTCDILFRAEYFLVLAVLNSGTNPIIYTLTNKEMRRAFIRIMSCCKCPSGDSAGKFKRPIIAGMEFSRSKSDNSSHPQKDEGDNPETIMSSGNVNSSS
T1 sequence (Q9H228 whole entry): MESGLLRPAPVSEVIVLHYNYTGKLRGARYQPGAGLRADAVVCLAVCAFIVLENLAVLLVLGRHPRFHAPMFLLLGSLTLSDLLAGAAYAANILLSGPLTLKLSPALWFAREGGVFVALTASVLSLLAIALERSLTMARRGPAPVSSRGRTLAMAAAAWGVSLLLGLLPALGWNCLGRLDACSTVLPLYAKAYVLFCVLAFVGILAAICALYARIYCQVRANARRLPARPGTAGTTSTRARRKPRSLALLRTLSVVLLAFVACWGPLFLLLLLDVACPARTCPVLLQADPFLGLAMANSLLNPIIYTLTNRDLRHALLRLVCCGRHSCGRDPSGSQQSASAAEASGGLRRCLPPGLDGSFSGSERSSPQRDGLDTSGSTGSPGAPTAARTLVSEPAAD

Take `O=C(O)C1CC(N2CCc3cccc(OCCc4cccc5ccccc45)c3CC2)C1` (single isomer, unassigned) [Example 23 (8), 3-{6-[2-(1-Naphthyl)ethoxy]-1,2,4,5-tetrahydro-3H-3-benzazepin-3-yl}cyclobutanecarboxylic Acid]: the IC50 in assay [1] is above 10000 nM; in assay [2], 1 to 100 nM. In the case of `O=C(O)C1CN(C2CCc3cccc(OCCc4cccc5ccccc45)c3C2)C1` (single isomer, unassigned; (+)) [Example 51 (2), (+)-1-{8-[2-(1-Naphthyl)ethoxy]-1,2,3,4-tetrahydro-2-naphthalenyl}-3-azetidinecarboxylic Acid], the IC50 is above 10000 nM in assay [1] and 1 to 100 nM in assay [2]. Regarding `O=C(O)C1CN(C2CCc3cccc(OCCc4cccc5ccccc45)c3C2)C1` (single isomer, unassigned; (-)) [Example 51 (1), (−)-1-{8-[2-(1-Naphthyl)ethoxy]-1,2,3,4-tetrahydro-2-naphthalenyl}-3-azetidinecarboxylic Acid], the IC50 is above 10000 nM in assay [1] and 1 to 100 nM in assay [2].

For the compound `O=C(O)C1CCN(C2CCc3c(cccc3OC/C=C/c3ccc(C(F)(F)F)cc3)C2)C1` (stereo not drawn) [Example 3 (1), 1-[5-({(2E)-3-[4-(Trifluoromethyl)phenyl]-2-propen-1-yl}oxy)-1,2,3,4-tetrahydro-2-naphthalenyl]-3-pyrrolidinecarboxylic Acid], the IC50 in assay [1] was above 30000 nM; in assay [2] it was 1000 to 3000 nM. For the compound `CN(CCC(=O)O)C1CCc2cccc(OC/C=C/c3ccc(C(F)(F)F)cc3)c2C1` (stereo not drawn) [Example 3 (3), 3-{Methyl[8-({(2E)-3-[4-(trifluoromethyl)phenyl]-2-propen-1-yl}loxy)-1,2,3,4-tetrahydro-2-naphthalenyl]amino}propanoic Acid], the IC50 was above 30000 nM in assay [1] and 100 to 1000 nM in assay [2].

Take `O=C(O)C1CN(C2CCc3cccc(OCCCc4ccccc4)c3C2)C1` (stereo not drawn) [Example 3 (4), 1-[8-(3-Phenylpropoxy)-1,2,3,4-tetrahydro-2-naphthalenyl]-3-azetidinecarboxylic Acid]: the IC50 in assay [1] is above 10000 nM; in assay [2] it was 1 to 100 nM.

`O=C(O)C1CN(C2CCc3cccc(OCCc4cccc5ccccc45)c3C2)C1` (stereo not drawn) [Example 3 (5), 1-{8-[2-(1-Naphthyl)ethoxy]-1,2,3,4-tetrahydro-2-naphthalenyl}-3-azetidinecarboxylic Acid] came in with an EC50 in assay [3] of 1 to 100 nM.

With `O=C(O)CCCN1CCc2c(cccc2OCCc2ccc3ccccc3c2)C1` [Example 18 (1), 4-{5-[2-(2-naphthyl)ethoxy]-3,4-dihydro-2(1H)-isoquinolinyl}butanoic Acid trifluoroacetate], the IC50 is above 30000 nM in assay [1] and 1000 to 3000 nM in assay [2]. Consider `O=C(O)CCCN1CCc2cccc(OC/C=C/c3ccc(C(F)(F)F)cc3)c2C1` [Example 18 (2), 4-[8-({(2E)-3-[4-(Trifluoromethyl)phenyl]-2-propen-1-yl}oxy)-3,4-dihydro-2(1H)-isoquinolinyl]butanoic Acid trifluoroacetate], for which the figures for the IC50 in assay [1] and in assay [2] were above 30000 nM and 1000 to 3000 nM, respectively. In the case of `CC(C)c1ccc(/C=C/COc2cccc3c2CCN(CCCC(=O)O)C3)cc1` [Example 18 (3), 4-[5-{[(2E)-3-(4-Isopropylphenyl)-2-propen-1-yl]oxy}-3,4-dihydro-2(1H)-isoquinolinyl]butanoic Acid], the figures for the IC50 in assay [1] and in assay [2] were above 30000 nM and 1000 to 3000 nM, respectively. Regarding `O=C(O)CCCN1CCc2c(cccc2OC/C=C/c2ccc(OC(F)F)cc2)C1` [Example 18 (4), 4-[5-({(2E)-3-[4-(Difluoromethoxy)phenyl]-2-propen-1-yl}oxy)-3,4-dihydro-2(1H)-isoquinolinyl]butanoic Acid], the IC50 is above 30000 nM in assay [1] and 1000 to 3000 nM in assay [2]. The corresponding values for `O=C(O)CCN1CCc2cccc(OC/C=C/c3ccc(C(F)(F)F)cc3)c2CC1` [Example 18 (8), 3-[6-({(2E)-3-[4-(Trifluoromethyl)phenyl]-2-propen-1-yl}oxy)-1,2,4,5-tetrahydro-3H-3-benzazepin-3-yl]propanoic Acid] are above 10000 nM and 100 to 1000 nM.

Take `O=C(O)CCCN1CCc2cccc(OCCOc3ccc(C(F)(F)F)cc3)c2CC1` [Example 18 (10), 4-(6-{2-[4-(Trifluoromethyl)phenoxy]ethoxy}-1,2,4,5-tetrahydro-3H-3-benzazepin-3-yl)butanoic Acid]: the IC50 in assay [1] was above 10000 nM; in assay [2], 1 to 100 nM. In turn, `O=C(O)CCCN1CCc2cccc(OCCCc3ccccc3)c2CC1` [Example 18 (11), 4-[6-(3-Phenylpropoxy)-1,2,4,5-tetrahydro-3H-3-benzazepin-3-yl]butanoic Acid] yielded an EC50 in assay [3] of 1 to 100 nM. Regarding `O=C(O)CCCN1CCc2cccc(OCCCC3CCCCC3)c2CC1` [Example 18 (14), 4-[6-(3-Cyclohexylpropoxy)-1,2,4,5-tetrahydro-3H-3-benzazepin-3-yl]butanoic Acid], the values for the IC50 in assay [1] and in assay [2] were above 10000 nM and 100 to 1000 nM, respectively.

For the compound `O=C(O)CCCN1CCc2cccc(OCC3CCc4ccccc4C3)c2CC1` (stereo not drawn) [Example 18 (16), 4-[6-(1,2,3,4-Tetrahydro-2-naphthalenylmethoxy)-1,2,4,5-tetrahydro-3H-3-benzazepin-3-yl]butanoic Acid], the IC50 is above 10000 nM in assay [1] and 100 to 1000 nM in assay [2]. Turning to `O=C(O)CCCN1CCc2cccc(OCCc3cccc4ccccc34)c2CC1` [Example 18 (18), 4-{6-[2-(1-Naphthyl)ethoxy]-1,2,4,5-tetrahydro-3H-3-benzazepin-3-yl}butanoic Acid], the IC50 in assay [1] is above 10000 nM; in assay [2], 1 to 100 nM. Besides, the EC50 in assay [3] was 1 to 100 nM. `O=C(O)CCCN1CCc2cccc(OCCc3ccccc3)c2CC1` [Example 18 (22), 4-[6-(2-Phenylethoxy)-1,2,4,5-tetrahydro-3H-3-benzazepin-3-yl]butanoic Acid]: the IC50 in assay [1] is above 10000 nM; in assay [2] it was 100 to 1000 nM.

For `O=C(O)CCCN1CCc2cccc(OCCCCCc3ccccc3)c2CC1` [Example 18 (24), 4-{6-[(5-Phenylpentyl)oxy]-1,2,4,5-tetrahydro-3H-3-benzazepin-3-yl}butanoic Acid], the IC50 in assay [1] is above 10000 nM; in assay [2], 1 to 100 nM. For the compound `O=C(O)CCCN1CCc2cccc(OCCC3Cc4ccccc43)c2CC1` (stereo not drawn) [Example 18 (26), 4-{6-[2-(Bicyclo[4.2.0]octa-1,3,5-trien-7-yl)ethoxy]-1,2,4,5-tetrahydro-3H-3-benzazepin-3-yl}butanoic Acid], the IC50 in assay [1] is above 10000 nM; in assay [2], 100 to 1000 nM.

Turning to `CCCCCCCCOc1cccc2c1CCN(CCCC(=O)O)CC2` [Example 18 (32), 4-[6-(Octyloxy)-1,2,4,5-tetrahydro-3H-3-benzazepin-3-yl]butanoic Acid], the IC50 was above 10000 nM in assay [1] and 100 to 1000 nM in assay [2]. In the case of `O=C(O)CCCN1CCc2cccc(OCCCC3CCOCC3)c2CC1` [Example 18 (42), 4-{6-[3-(tetrahydro-2H-pyran-4-yl)propoxy]-1,2,4,5-tetrahydro-3H-3-benzazepin-3-yl}butanoic Acid], the values for the IC50 in assay [1] and in assay [2] were above 10000 nM and 100 to 1000 nM, respectively.

As to `Cc1ccc2c(c1OCCCc1ccccc1)CCN(CCCC(=O)O)CC2` [Example 29, 4-[7-Methyl-6-(3-phenylpropoxy)-1,2,4,5-tetrahydro-3H-3-benzazepin-3-yl]butanoic Acid], the IC50 in assay [1] is above 10000 nM; in assay [2] it was 1 to 100 nM. In the case of `O=C(O)CC1(CN2CCc3cccc(OCCc4cccc5ccccc45)c3CC2)CC1` [Example 37, [1-({6-[2-(1-Naphthyl)ethoxy]-1,2,4,5-tetrahydro-3H-3-benzazepin-3-yl}methyl)cyclopropyl]acetic Acid], the IC50 in assay [1] was above 10000 nM; in assay [2], 100 to 1000 nM.

As for `O=C(O)C1CN(C2Cc3cccc(OCCc4ccccc4)c3C2)C1` (stereo not drawn) [Example 48, 1-[4-(2-Phenylethoxy)-2,3-dihydro-1H-inden-2-yl]-3-azetidinecarboxylic Acid], the IC50 in assay [1] is above 30000 nM; in assay [2] it was 100 to 1000 nM. On to `O=C(O)CCCCN1CCCc2c(cccc2OC/C=C/c2ccc(C(F)(F)F)cc2)C1` [Example 49, 5-[6-({(2E)-3-[4-(Trifluoromethyl)phenyl]-2-propen-1-yl}oxy)-1,3,4,5-tetrahydro-2H-2-benzazepin-2-yl]pentanoic Acid], for which the values for the IC50 in assay [1] and in assay [2] were above 30000 nM and 1000 to 3000 nM, respectively.
